Legend:
Muscle tissue [1] = test: Biodistribution in muscle of NSG mouse xenografted with human PC-3 tumor at 0.37 to 0.74 MBq, iv after 2 hrs by gamma counting analysis; assay type: ADME, organism-based; details: in vivo
Spleen [2] = test: Biodistribution in spleen of NSG mouse xenografted with human PC-3 tumor at 0.37 to 0.74 MBq, iv after 1 hr by gamma counting analysis; assay type: ADME, organism-based; details: in vivo
Spleen [3] = test: Biodistribution in spleen of NSG mouse xenografted with human PC-3 tumor at 0.37 to 0.74 MBq, iv after 0.5 hrs by gamma counting analysis; assay type: ADME, organism-based; details: in vivo
Intestine [4] = test: Biodistribution in intestine of NSG mouse xenografted with human PC-3 tumor at 0.37 to 0.74 MBq, iv after 1 hr by gamma counting analysis; assay type: ADME, organism-based; details: in vivo
Tumour [5] = test: Biodistribution in tumor of NSG mouse xenografted with human PC-3 tumor at 0.37 to 0.74 MBq, iv after 2 hrs by gamma counting analysis; assay type: ADME, organism-based, Neoplasm; details: in vivo
Pancreas [6] = test: Biodistribution in pancreas of NSG mouse xenografted with human PC-3 tumor at 0.37 to 0.74 MBq, iv after 2 hrs by gamma counting analysis; assay type: ADME, organism-based; details: in vivo
Mus musculus [7] = test: Biodistribution in seminal gland of NSG mouse xenografted with human PC-3 tumor at 0.37 to 0.74 MBq, iv after 1 hr by gamma counting analysis; assay type: ADME, organism-based; details: in vivo
Tumour [8] = test: Biodistribution in tumor of NSG mouse xenografted with human PC-3 tumor at 0.37 to 0.74 MBq, iv after 1 hr by gamma counting analysis; assay type: ADME, organism-based, Neoplasm; details: in vivo
Intestine [9] = test: Biodistribution in intestine of NSG mouse xenografted with human PC-3 tumor at 0.37 to 0.74 MBq, iv after 1 hr by gamma counting analysis in presence of BAY86-7548; assay type: ADME, organism-based; details: in vivo
Intestine [10] = test: Biodistribution in intestine of NSG mouse xenografted with human PC-3 tumor at 0.37 to 0.74 MBq, iv after 2 hrs by gamma counting analysis; assay type: ADME, organism-based; details: in vivo
Plasma = test: Metabolic stability in mouse plasma after 0.5 to 2 hrs by HPLC analysis; assay type: ADME, cell-free
Spleen [11] = test: Biodistribution in spleen of NSG mouse xenografted with human PC-3 tumor at 0.37 to 0.74 MBq, iv after 1 hr by gamma counting analysis in presence of BAY86-7548; assay type: ADME, organism-based; details: in vivo
Liver [12] = test: Biodistribution in liver of NSG mouse xenografted with human PC-3 tumor at 0.37 to 0.74 MBq, iv after 1 hr by gamma counting analysis in presence of BAY86-7548; assay type: ADME, organism-based; details: in vivo
Muscle tissue [13] = test: Biodistribution in muscle of NSG mouse xenografted with human PC-3 tumor at 0.37 to 0.74 MBq, iv after 1 hr by gamma counting analysis; assay type: ADME, organism-based; details: in vivo
Mus musculus [14] = test: Biodistribution in seminal gland of NSG mouse xenografted with human PC-3 tumor at 0.37 to 0.74 MBq, iv after 2 hrs by gamma counting analysis; assay type: ADME, organism-based; details: in vivo
Kidney [15] = test: Biodistribution in kidney of NSG mouse xenografted with human PC-3 tumor at 0.37 to 0.74 MBq, iv after 1 hr by gamma counting analysis in presence of BAY86-7548; assay type: ADME, organism-based; details: in vivo
[16] = Biodistribution in fat of NSG mouse xenografted with human PC-3 tumor at 0.37 to 0.74 MBq, iv after 1 hr by gamma counting analysis in presence of BAY86-7548; assay type: ADME, organism-based, Adipose tissue; details: in vivo
Brain [17] = test: Biodistribution in brain of NSG mouse xenografted with human PC-3 tumor at 0.37 to 0.74 MBq, iv after 1 hr by gamma counting analysis in presence of BAY86-7548; assay type: ADME, organism-based; details: in vivo
Liver [18] = test: Biodistribution in liver of NSG mouse xenografted with human PC-3 tumor at 0.37 to 0.74 MBq, iv after 2 hrs by gamma counting analysis; assay type: ADME, organism-based; details: in vivo
Blood [19] = test: Biodistribution in blood of NSG mouse xenografted with human PC-3 tumor at 0.37 to 0.74 MBq, iv after 2 hrs by gamma counting analysis; assay type: ADME, organism-based; details: in vivo
Intestine [20] = test: Biodistribution in intestine of NSG mouse xenografted with human PC-3 tumor at 0.37 to 0.74 MBq, iv after 0.5 hrs by gamma counting analysis; assay type: ADME, organism-based; details: in vivo
Mus musculus [21] = test: Biodistribution in adrenal gland of NSG mouse xenografted with human PC-3 tumor at 0.37 to 0.74 MBq, iv after 1 hr by gamma counting analysis; assay type: ADME, organism-based; details: in vivo
Tumour [22] = test: Biodistribution in tumor of NSG mouse xenografted with human PC-3 tumor at 0.37 to 0.74 MBq, iv after 1 hr by gamma counting analysis in presence of BAY86-7548; assay type: ADME, organism-based, Neoplasm; details: in vivo
Muscle tissue [23] = test: Biodistribution in muscle of NSG mouse xenografted with human PC-3 tumor at 0.37 to 0.74 MBq, iv after 0.5 hrs by gamma counting analysis; assay type: ADME, organism-based; details: in vivo
Mus musculus [24] = test: Biodistribution in testis of NSG mouse xenografted with human PC-3 tumor at 0.37 to 0.74 MBq, iv after 1 hr by gamma counting analysis; assay type: ADME, organism-based; details: in vivo
Kidney [25] = test: Biodistribution in kidney of NSG mouse xenografted with human PC-3 tumor at 0.37 to 0.74 MBq, iv after 2 hrs by gamma counting analysis; assay type: ADME, organism-based; details: in vivo
Pancreas [26] = test: Biodistribution in pancreas of NSG mouse xenografted with human PC-3 tumor at 0.37 to 0.74 MBq, iv after 1 hr by gamma counting analysis; assay type: ADME, organism-based; details: in vivo
Blood [27] = test: Biodistribution in blood of NSG mouse xenografted with human PC-3 tumor at 0.37 to 0.74 MBq, iv after 1 hr by gamma counting analysis in presence of BAY86-7548; assay type: ADME, organism-based; details: in vivo
Lung [28] = test: Biodistribution in lung of NSG mouse xenografted with human PC-3 tumor at 0.37 to 0.74 MBq, iv after 2 hrs by gamma counting analysis; assay type: ADME, organism-based; details: in vivo
Liver [29] = test: Biodistribution in liver of NSG mouse xenografted with human PC-3 tumor at 0.37 to 0.74 MBq, iv after 1 hr by gamma counting analysis; assay type: ADME, organism-based; details: in vivo
Brain [30] = test: Biodistribution in brain of NSG mouse xenografted with human PC-3 tumor at 0.37 to 0.74 MBq, iv after 1 hr by gamma counting analysis; assay type: ADME, organism-based; details: in vivo
Brain [31] = test: Biodistribution in brain of NSG mouse xenografted with human PC-3 tumor at 0.37 to 0.74 MBq, iv after 0.5 hrs by gamma counting analysis; assay type: ADME, organism-based; details: in vivo
Mus musculus [32] = test: Biodistribution in adrenal gland of NSG mouse xenografted with human PC-3 tumor at 0.37 to 0.74 MBq, iv after 2 hrs by gamma counting analysis; assay type: ADME, organism-based; details: in vivo
Bone = test: Biodistribution in bone of NSG mouse xenografted with human PC-3 tumor at 0.37 to 0.74 MBq, iv after 1 hr by gamma counting analysis; assay type: ADME, organism-based, Bone element; details: in vivo
Lung [33] = test: Biodistribution in lung of NSG mouse xenografted with human PC-3 tumor at 0.37 to 0.74 MBq, iv after 1 hr by gamma counting analysis in presence of BAY86-7548; assay type: ADME, organism-based; details: in vivo
Pancreas [34] = test: Biodistribution in pancreas of NSG mouse xenografted with human PC-3 tumor at 0.37 to 0.74 MBq, iv after 1 hr by gamma counting analysis in presence of BAY86-7548; assay type: ADME, organism-based; details: in vivo
Lung [35] = test: Biodistribution in lung of NSG mouse xenografted with human PC-3 tumor at 0.37 to 0.74 MBq, iv after 1 hr by gamma counting analysis; assay type: ADME, organism-based; details: in vivo

CC(C)C[C@H](NC(=O)C[C@H](O)[C@H](CC(C)C)NC(=O)[C@H](Cc1cnc[nH]1)NC(=O)CNC(=O)[C@@H](NC(=O)[C@H](C)NC(=O)[C@H](Cc1c[nH]c2ccccc12)NC(=O)[C@H](CCC(N)=O)NC(=O)[C@@H](Cc1ccccc1)NC(=O)CN1CCC(NC(=O)Cn2cc(C[N+](C)(C)C[B-](F)(F)[17F])nn2)CC1)C(C)C)C(N)=O
Drug uptake (Muscle tissue [1]): 0.03 % ID/g | Drug uptake (Spleen [2]): 0.33 % ID/g | Drug uptake (Spleen [3]): 1.08 % ID/g | Drug uptake (Intestine [4]): 6.3 % ID/g | Drug uptake (Tumour [5]): 2.2 % ID/g | Drug uptake (Pancreas [6]): 4.75 % ID/g | Drug uptake (Mus musculus [7]): 0.7 % ID/g | Drug uptake (Tumour [8]): 1.47 % ID/g | Drug uptake (Intestine [9]): 0.25 % ID/g | Drug uptake (Intestine [10]): 8.67 % ID/g | Stability (Plasma): Stable | Drug uptake (Spleen [11]): 0.32 % ID/g | Drug uptake (Liver [12]): 1.05 % ID/g | Drug uptake (Muscle tissue [13]): 0.07 % ID/g | Drug uptake (Mus musculus [14]): 0.15 % ID/g | Drug uptake (Kidney [15]): 6.66 % ID/g | Drug uptake [16]: 0.12 % ID/g | Drug uptake (Brain [17]): 0.03 % ID/g | Drug uptake (Liver [18]): 0.33 % ID/g | Drug uptake (Blood [19]): 0.32 % ID/g | Drug uptake (Intestine [20]): 4.28 % ID/g | Drug uptake (Mus musculus [21]): 0.5 % ID/g | Drug uptake (Tumour [22]): 0.54 % ID/g | Drug uptake (Muscle tissue [23]): 0.38 % ID/g | Drug uptake (Mus musculus [24]): 0.25 % ID/g | Drug uptake (Kidney [25]): 1.46 % ID/g | Drug uptake (Pancreas [26]): 4.16 % ID/g | Drug uptake (Blood [27]): 0.48 % ID/g | Drug uptake (Lung [28]): 0.4 % ID/g | Drug uptake (Liver [29]): 0.78 % ID/g | Drug uptake (Brain [30]): 0.02 % ID/g | Drug uptake (Brain [31]): 0.07 % ID/g | Drug uptake (Mus musculus [32]): 0.29 % ID/g | Drug uptake (Bone): 0.28 % ID/g | Drug uptake (Lung [33]): 0.71 % ID/g | Drug uptake (Pancreas [34]): 0.42 % ID/g | Drug uptake (Lung [35]): 0.96 % ID/g

Reference: ChEMBL document CHEMBL3399937, “(18)F-AmBF3-MJ9: a novel radiofluorinated bombesin derivative for prostate cancer imaging” (Bioorg Med Chem, 2015)
